# pKd: −log10 of the molar value.
# Target: WDR5 (Homo sapiens (Human), UniProt P61964)
# Test: Surface Plasmon Resonance (SPR) assay, KD and residence time
# Format: binding
# Details: surface plasmon resonance (SPR) assay; read-out: WDR5 binding affinity (KD)
row,pKd,SMILES
1,8.51,"C[C@@H]1CN(c2cc(F)c(C3=CCN(C(=O)OC(C)(C)C)CC3)cc2NC(=O)c2cn(C)c(=O)cc2C(F)(F)F)C[C@H](C)N1C [Example 313, tert-butyl 4-[2-fluoro-5-[[-methyl-6-oxo-4-(trifluoromethyl)pyridine-3-carbonyl]amino]-4-[(3R,5S)-3,4,5-trimethylpiperazin-1-yl]phenyl]-3,6-dihydro-2H-pyridine-1-carboxylate]"
2,8.73,"CN(C)[C@@H]1CCN(c2cc(F)c(-c3ccc(N4CCOCC4)nc3)cc2NC(=O)c2c[nH]c(=O)cc2C(F)(F)F)C1 [Example 234, N-[4-fluoro-5-(6-morpholin-4-ylpyridin-3-yl)-2-[(3R)-3-(dimethylamino)pyrrolidin-1-yl]phenyl]-6-oxo-4-(trifluoromethyl)-1H-pyridine-3-carboxamide]"
3,8.01,"C[C@@H]1CN(c2cc(F)c(-c3cnc(O)c(C#N)c3)cc2NC(=O)c2c[nH]c(=O)cc2C(F)(F)F)C[C@H](C)N1C [Example 123, N-[5-(5-cyano-6-hydroxypyridin-3-yl)-4-fluoro-2-[(3R,5S)-3,4,5-trimethylpiperazin-1-yl]phenyl]-6-oxo-4-(trifluoromethyl)-1H-pyridine-3-carboxamide]"
4,8.43,"C[C@@H]1CC(N2CC=C(c3cc(NC(=O)c4c[nH]c(=O)cc4C(F)(F)F)c(N4C[C@@H](C)N(C)[C@@H](C)C4)cc3F)CC2)C[C@H](C)O1 (stereo partly drawn) [Example 289, N-[4-fluoro-5-[1-[(2R,6S)-2,6-dimethyloxan-4-yl]-3,6-dihydro-2H-pyridin-4-yl]-2-[(3S,5R)-3,4,5-trimethylpiperazin-1-yl]phenyl]-6-oxo-4-(trifluoromethyl)-1H-pyridine-3-carboxamide]"
5,< 6.70,"C[C@@H]1CN(c2cc(C(F)(F)F)c(-c3cnc(N4CCOCC4)nc3)cc2NC(=O)c2c[nH]c(=O)cc2C(F)(F)F)C[C@H](C)N1C [Example 59, N-[5-(2-morpholin-4-ylpyrimidin-5-yl)-2-[rac-(3R,5S)-3,4,5-trimethylpiperazin-1-yl]-4-(trifluoromethyl)phenyl]-6-oxo-4-(trifluoromethyl)-1H-pyridine-3-carboxamide]"
6,9.33,"COc1ncc(-c2cc(NC(=O)c3c[nH]c(=O)cc3C(F)(F)F)c(N3C[C@@H](C)N(C)[C@@H](C)C3)cc2F)cc1C(F)(F)F [Example 136, N-[4-fluoro-5-[6-methoxy-5-(trifluoromethyl)pyridin-3-yl]-2-[(3R,5S)-3,4,5-trimethylpiperazin-1-yl]phenyl]-6-oxo-4-(trifluoromethyl)-1H-pyridine-3-carboxamide]"
7,8.88,"C[C@@H]1CN(c2cc(F)c(-c3ccnc(C#N)c3)cc2NC(=O)c2c[nH]c(=O)cc2C(F)(F)F)C[C@H](C)N1C [Example 133, N-[5-(2-cyanopyridin-4-yl)-4-fluoro-2-[(3R,5S)-3,4,5-trimethylpiperazin-1-yl]phenyl]-6-oxo-4-(trifluoromethyl)-1H-pyridine-3-carboxamide]"
8,7.83,"CNC1CCN(c2cc(F)c(-c3cnc(N4CCOCC4)nc3)cc2NC(=O)c2c[nH]c(=O)cc2C(F)(F)F)C1 (stereo not shown) [Example 277, N-[4-fluoro-2-[3-(methylamino)pyrrolidin-1-yl]-5-(2-morpholin-4-ylpyrimidin-5-yl)phenyl]-6-oxo-4-(trifluoromethyl)-1H-pyridine-3-carboxamide]"
9,8.44,"C[C@@H]1CN(c2cc(F)c(C3=CCN(c4ccccc4)CC3)cc2NC(=O)c2c[nH]c(=O)cc2C(F)(F)F)C[C@H](C)N1C [Example 73, N-[4-fluoro-5-(1-phenyl-3,6-dihydro-2H-pyridin-4-yl)-2-[(3R,5S)-3,4,5-trimethylpiperazin-1-yl]phenyl]-6-oxo-4-(trifluoromethyl)-1H-pyridine-3-carboxamide]"
10,8.34,"C[C@@H]1CN(c2cc(F)c(-c3cccc(CN(C)C4COC4)c3)cc2NC(=O)c2c[nH]c(=O)cc2C(F)(F)F)C[C@H](C)N1C [Example 118, N-[4-fluoro-5-[3-[[methyl(oxetan-3-yl)amino]methyl]phenyl]-2-[(3R,5S)-3,4,5-trimethylpiperazin-1-yl]phenyl]-6-oxo-4-(trifluoromethyl)-1H-pyridine-3-carboxamide]"
11,6.91,"CN(C)[C@@H]1CCN(c2cc(F)c(-c3ccc(N4CCOCC4)cc3)cc2NC(=O)c2cc(Cl)cc(Cl)c2)C1 [Example 169, 3,5-dichloro-N-[4-fluoro-5-(4-morpholin-4-ylphenyl)-2-[(3R)-3-(dimethylamino)pyrrolidin-1-yl]phenyl]benzamide]"
12,7.71,"C[C@@H]1CN(c2cc(F)c(-c3cc(Cl)c(O)c(C#N)c3)cc2NC(=O)c2c[nH]c(=O)cc2C(F)(F)F)C[C@H](C)N1C [Example 98, N-[5-(3-chloro-5-cyano-4-hydroxyphenyl)-4-fluoro-2-[(3R,5S)-3,4,5-trimethylpiperazin-1-yl]phenyl]-6-oxo-4-(trifluoromethyl)-1H-pyridine-3-carboxamide]"

# Same assay, conditions: surface plasmon resonance (SPR); read-out: WDR5 binding affinity (KD)
row,pKd,SMILES
1,8.72,"C[C@@H]1CN(c2cc(F)c(-c3cnc(N4CCC(C)(O)CC4)nc3)cc2NC(=O)c2cn(C)c(=O)cc2C(F)(F)F)C[C@H](C)N1C [Example 641, N-[4-fluoro-5-[2-(4-hydroxy-4-methylpiperidin-1-yl)pyrimidin-5-yl]-2-[(3R,5S)-3,4,5-trimethylpiperazin-1-yl]phenyl]-1-methyl-6-oxo-4-(trifluoromethyl)pyridine-3-carboxamide]"
2,8.43,"C[C@@H]1CN(c2cc(F)c(C3=CCCN(C(=O)OC4(C)CCC4)CC3)cc2NC(=O)c2c[nH]c(=O)cc2C(F)(F)F)C[C@H](C)N1C [Example 699, (1-methylcyclobutyl) 4-[2-fluoro-5-[[6-oxo-4-(trifluoromethyl)-1H-pyridine-3-carbonyl]amino]-4-[(3R,5S)-3,4,5-trimethylpiperazin-1-yl]phenyl]-2,3,6,7-tetrahydroazepine-1-carboxylate]"
3,8.38,"C[C@@H]1CN(c2cc(F)c(-c3ccc(C(=O)NC4CCC(F)(F)CC4)c(F)c3)cc2NC(=O)c2c[nH]c(=O)cc2C(F)(F)F)C[C@H](C)N1C [Example 734, N-[5-[4-[(4,4-difluorocyclohexyl)carbamoyl]-3-fluorophenyl]-4-fluoro-2-[(3R,5S)-3,4,5-trimethylpiperazin-1-yl]phenyl]-6-oxo-4-(trifluoromethyl)-1H-pyridine-3-carboxamide]"
4,8.53,"C[C@@H]1CN(c2cc(F)c(-c3nc(C#N)cs3)cc2NC(=O)c2c[nH]c(=O)cc2C(F)(F)F)C[C@H](C)N1C [Example 446, N-[5-(4-cyano-1,3-thiazol-2-yl)-4-fluoro-2-[(3R,5S)-3,4,5-trimethylpiperazin-1-yl]phenyl]-6-oxo-4-(trifluoromethyl)-1H-pyridine-3-carboxamide]"
5,8.02,"C[C@@H]1CN(c2cc(F)c(-c3ccc(C(N)=O)c(F)c3F)cc2NC(=O)c2ccc(F)cc2C(F)(F)F)C[C@H](C)N1C [Example 667, 2,3-difluoro-4-[2-fluoro-5-[[4-fluoro-2-(trifluoromethyl)benzoyl]amino]-4-[(3R,5S)-3,4,5-trimethylpiperazin-1-yl]phenyl]benzamide]"
6,8.58,"C[C@H]1CN(c2cc(F)c(C3=CCN(C(=O)OC4(C)CCC4)C3)cc2NC(=O)c2c[nH]c(=O)cc2C(F)F)CCN1C [Example 631, 1-Methylcyclobutyl (S)-3-(5-(4-(difluoromethyl)-6-oxo-1,6-dihydropyridine-3-carboxamido)-4-(3,4-dimethylpiperazin-1-yl)-2-fluorophenyl)-2,5-dihydro-1H-pyrrole-1-carboxylate]"
7,8.90,"C[C@@H]1CN(c2cc(F)c(C3=CCCN(c4ncco4)C3)cc2NC(=O)c2c[nH]c(=O)cc2C(F)(F)F)C[C@H](C)N1C [Example 643, N-[4-fluoro-5-[1-(1,3-oxazol-2-yl)-3,6-dihydro-2H-pyridin-5-yl]-2-[(3R5S)-3,4,5-trimethylpiperazin-1-yl]phenyl]-6-oxo-4-(trifluoromethyl)-H-pyridine-3-carboxamide]"
8,8.44,"C[C@@H]1CN(c2cc(F)c(-c3ccc(CN4CCOCC4)s3)cc2NC(=O)c2c[nH]c(=O)cc2C(F)(F)F)C[C@H](C)N1C [Example 491, N-[4-fluoro-5-[5-(morpholin-4-ylmethyl)thiophen-2-yl]-2-[(3R,5S)-3,4,5-trimethylpiperazin-1-yl]phenyl]-6-oxo-4-(trifluoromethyl)-1H-pyridine-3-carboxamide]"
9,8.46,"CNC(=O)c1ccc(-c2cc(NC(=O)c3cn(C)c(=O)cc3C(F)F)c(N3CCN(C)C(C)C3)cc2F)cc1F (stereo in doubt) [Example 653, 4-(difluoromethyl)-N-[4-fluoro-5-[3-fluoro-4-(methylcarbamoyl)phenyl]-2-[(3R)-3,4-dimethylpiperazin-1-yl]phenyl]-1-methyl-6-oxopyridine-3-carboxamide]"
10,7.92,"C[C@@H]1CN(c2cc(F)c(-c3cc(C(N)=O)c(F)cc3F)cc2NC(=O)c2c[nH]c(=O)cc2C(F)F)C[C@H](C)N1C [Example 633, N-[5-(5-carbamoyl-2,4-difluorophenyl)-4-fluoro-2-[(3R,5S)-3,4,5-trimethylpiperazin-1-yl]phenyl]-4-(difluoromethyl)-6-oxo-1H-pyridine-3-carboxamide]"
11,8.27,"CCN(CC)[C@@H]1CCN(c2cc(F)c(-c3cnc(N4CCOCC4)nc3)cc2NC(=O)c2c[nH]c(=O)cc2C(F)(F)F)C1 [Example 419, N-[4-fluoro-5-(2-morpholin-4-ylpyrimidin-5-yl)-2-[(3R)-3-(diethylamino)pyrrolidin-1-yl]phenyl]-6-oxo-4-(trifluoromethyl)-1H-pyridine-3-carboxamide]"
12,8.49,"C[C@@H]1CN(c2cc(F)c(C3=CCN(C(=O)OC4(C)COC4)C3)cc2NC(=O)c2c[nH]c(=O)cc2C(F)(F)F)C[C@H](C)N1C [Example 490, (3-methyloxetan-3-yl) 3-[2-fluoro-5-[[6-oxo-4-(trifluoromethyl)-1H-pyridine-3-carbonyl]amino]-4-[(3R,5S)-3,4,5-trimethylpiperazin-1-yl]phenyl]-2,5-dihydropyrrole-1-carboxylate]"
13,9.02,"C[C@@H]1CN(c2cc(F)c(-c3cnc(N4CCOCC4)s3)cc2NC(=O)c2c[nH]c(=O)cc2C(F)(F)F)C[C@H](C)N1C [Example 619, N-[4-fluoro-5-(2-morpholin-4-yl-1,3-thiazol-5-yl)-2-[(3R,5S)-3,4,5-trimethylpiperazin-1-yl]phenyl]-6-oxo-4-(trifluoromethyl)-1H-pyridine-3-carboxamide]"
